Measured values from PubChem BioAssay (NCI).
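Cells were grown in 96-well plates and exposed to each compound for 48 hours at five concentrations; endpoints were interpolated linearly between bracketing concentrations, or set to the highest concentration if not reached. Abbreviation: GI50, concentration required for 50% inhibition of growth. TGI marks complete inhibition of growth.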

Legend:
Assay in all cases: NCI anticancer screen, dose series, 48 h
[1] = system: DU-145 prostate
[2] = system: SK-OV-3 ovarian
[3] = system: SN12C renal
[4] = system: UACC-62 melanoma
[5] = system: U251 CNS
[6] = system: EKVX NSCLC
[7] = system: SNB-75 CNS
[8] = system: CCRF-CEM leukemia
[9] = system: HS 578T breast
[10] = system: NCI-H226 lung
[11] = system: HCT-116 colon
[12] = system: MDA-MB-231 breast
[13] = system: BT-549 breast
[14] = system: OVCAR-3 ovarian
[15] = system: RPMI-8226 leukemia
[16] = system: OVCAR-8 ovarian
[17] = system: UO-31 renal
[18] = system: MCF7 breast
[19] = system: K-562 leukemia
[20] = system: HCT-15 colon
[21] = system: OVCAR-4 ovarian
[22] = system: LOX IMVI melanoma
[23] = system: IGROV1 ovarian
[24] = system: SF-539 CNS
[25] = system: HL-60(TB) leukemia
[26] = system: HOP-62 NSCLC
[27] = system: TK-10 renal
[28] = system: PC-3 prostate
[29] = system: MDA-MB-435
[30] = system: OVCAR-5 ovarian
[31] = system: UACC-257 melanoma
[32] = system: SK-MEL-5 melanoma
[33] = system: MALME-3M melanoma
[34] = system: M14 melanoma
[35] = system: A498 renal
[36] = system: SK-MEL-2 melanoma
[37] = system: 786-0 renal
[38] = system: A549 NSCLC
[39] = system: CAKI-1 renal
[40] = system: SF-268 CNS
[41] = system: HOP-92 NSCLC
[42] = system: KM12 colon
[43] = system: COLO 205 colon
[44] = system: HT29 colon
[45] = system: RXF 393 renal
[46] = system: NCI-H522 lung
[47] = system: ACHN renal
[48] = system: SK-MEL-28 melanoma
[49] = system: HCC-2998 colon
[50] = system: SF-295 CNS
[51] = system: NCI-H23 lung
[52] = system: NCI/ADR-RES ovarian
[53] = system: NCI-H460 lung
[54] = system: SW-620 colon
[55] = system: SNB-19 CNS
[56] = system: T-47D breast
[57] = system: MOLT-4 leukemia
[58] = system: SR leukemia

For `c1ccc(-c2nc([P+](c3ccccc3)(c3ccccc3)c3ccccc3)c(N3CCOCC3)o2)cc1`, the GI50 [1] was 1180 nM, the TGI [1] was 12900 nM and the GI50 [2] was 1630 nM. The TGI [2] was 6340 nM, the GI50 [3] was 934 nM and the TGI [3] was 9150 nM. The GI50 [4] was 589 nM, the TGI [4] was 2940 nM and the GI50 [5] was 483 nM. For the same compound, the TGI [5] was 11900 nM, the GI50 [6] was 2310 nM and the TGI [6] was 29500 nM. It also gave a GI50 [7] of 393 nM, a TGI [7] of 2730 nM and a GI50 [8] of 1130 nM. For the same compound, the TGI [8] was 36600 nM, the GI50 [9] was 1620 nM and the TGI [9] was 11700 nM. For the same compound, the GI50 [10] was 1980 nM, the TGI [10] was 8500 nM and the GI50 [11] was 1040 nM. The TGI [11] was 10700 nM, the GI50 [12] was 920 nM and the TGI [12] was 7120 nM. It also gave a GI50 [13] of 523 nM, a TGI [13] of 6770 nM and a GI50 [14] of 474 nM. The TGI [14] was 4280 nM, the GI50 [15] was 295 nM and the TGI [15] was 1430 nM. The GI50 [16] was 1180 nM, the TGI [16] was 10200 nM and the GI50 [17] was 6370 nM. It also gave a TGI [17] of 25700 nM, a GI50 [18] of 388 nM and a TGI [18] of 4150 nM. The GI50 [19] was 439 nM, the TGI [19] was greater than 74800 nM and the GI50 [20] was 9310 nM. The TGI [20] was 58800 nM, the GI50 [21] was 424 nM and the TGI [21] was 6270 nM. For the same compound, the GI50 [22] was 1490 nM, the TGI [22] was 3900 nM and the GI50 [23] was 557 nM. It also gave a TGI [23] of 8350 nM, a GI50 [24] of 2190 nM and a TGI [24] of 12200 nM. It also gave a GI50 [25] of 322 nM, a TGI [25] of 1600 nM and a GI50 [26] of 2110 nM. It also gave a TGI [26] of 10600 nM, a GI50 [27] of 2750 nM and a TGI [27] of 15000 nM. It also gave a GI50 [28] of 450 nM, a TGI [28] of 5770 nM and a GI50 [29] of 445 nM. For the same compound, the TGI [29] was 4550 nM, the GI50 [30] was 2450 nM and the TGI [30] was 12800 nM. It also gave a GI50 [31] of 406 nM, a TGI [31] of 3480 nM and a GI50 [32] of 654 nM. The TGI [32] was 1960 nM, the GI50 [33] was 529 nM and the TGI [33] was 6130 nM. The GI50 [34] was 1560 nM, the TGI [34] was 10900 nM and the GI50 [35] was 1710 nM. The TGI [35] was 5580 nM, the GI50 [36] was 880 nM and the TGI [36] was 4030 nM. The GI50 [37] was 3920 nM, the TGI [37] was 28800 nM and the GI50 [38] was 2830 nM. For the same compound, the TGI [38] was 48600 nM, the GI50 [39] was 2260 nM and the TGI [39] was 6470 nM. It also gave a GI50 [40] of 844 nM, a TGI [40] of 11100 nM and a GI50 [41] of 446 nM. For the same compound, the TGI [41] was 3200 nM, the GI50 [42] was 385 nM and the TGI [42] was 2040 nM. For the same compound, the GI50 [43] was 477 nM, the TGI [43] was 2070 nM and the GI50 [44] was 715 nM. It also gave a TGI [44] greater than 33300 nM, a GI50 [45] of 1590 nM and a TGI [45] of 7420 nM. For the same compound, the GI50 [46] was 665 nM, the TGI [46] was 5430 nM and the GI50 [47] was 3070 nM. The TGI [47] was 12700 nM, the GI50 [48] was 704 nM and the TGI [48] was 13100 nM. The GI50 [49] was 1040 nM, the TGI [49] was 12400 nM and the GI50 [50] was 2090 nM. For the same compound, the TGI [50] was 5540 nM, the GI50 [51] was 1910 nM and the TGI [51] was 7240 nM. It also gave a GI50 [52] greater than 76400 nM, a TGI [52] greater than 100000 nM and a GI50 [53] of 2480 nM. It also gave a TGI [53] of 12000 nM, a GI50 [54] of 926 nM and a TGI [54] of 20100 nM. It also gave a GI50 [55] of 483 nM, a TGI [55] of 15000 nM and a GI50 [56] of 358 nM. It also gave a TGI [56] of 6810 nM, a GI50 [57] of 2260 nM and a TGI [57] of 14800 nM. It also gave a GI50 [58] of 655 nM and a TGI [58] of 20000 nM.
